From ChEMBL document CHEMBL6153172, “MALT1 Inhibitors and Degraders: Strategies for NF-κB-Driven Malignancies” (J Med Chem, 2025)
Each block holds one molecule with its values, some of them ahead of it. Where a SMILES comes first, the peptide text is derived from it. The star is where a group is joined. Cbz = O=C(OCc1ccccc1)*; CH2F = FC*

Experiments:
OCI-Ly3 [1] = experiment: Growth inhibition of human OCI-Ly3 cells
[2] = molecular target: T1, Mucosa-associated lymphoid tissue lymphoma translocation protein 1 (Homo sapiens, UniProt Q9UDY8)
T1 sequence (Q9UDY8 whole entry): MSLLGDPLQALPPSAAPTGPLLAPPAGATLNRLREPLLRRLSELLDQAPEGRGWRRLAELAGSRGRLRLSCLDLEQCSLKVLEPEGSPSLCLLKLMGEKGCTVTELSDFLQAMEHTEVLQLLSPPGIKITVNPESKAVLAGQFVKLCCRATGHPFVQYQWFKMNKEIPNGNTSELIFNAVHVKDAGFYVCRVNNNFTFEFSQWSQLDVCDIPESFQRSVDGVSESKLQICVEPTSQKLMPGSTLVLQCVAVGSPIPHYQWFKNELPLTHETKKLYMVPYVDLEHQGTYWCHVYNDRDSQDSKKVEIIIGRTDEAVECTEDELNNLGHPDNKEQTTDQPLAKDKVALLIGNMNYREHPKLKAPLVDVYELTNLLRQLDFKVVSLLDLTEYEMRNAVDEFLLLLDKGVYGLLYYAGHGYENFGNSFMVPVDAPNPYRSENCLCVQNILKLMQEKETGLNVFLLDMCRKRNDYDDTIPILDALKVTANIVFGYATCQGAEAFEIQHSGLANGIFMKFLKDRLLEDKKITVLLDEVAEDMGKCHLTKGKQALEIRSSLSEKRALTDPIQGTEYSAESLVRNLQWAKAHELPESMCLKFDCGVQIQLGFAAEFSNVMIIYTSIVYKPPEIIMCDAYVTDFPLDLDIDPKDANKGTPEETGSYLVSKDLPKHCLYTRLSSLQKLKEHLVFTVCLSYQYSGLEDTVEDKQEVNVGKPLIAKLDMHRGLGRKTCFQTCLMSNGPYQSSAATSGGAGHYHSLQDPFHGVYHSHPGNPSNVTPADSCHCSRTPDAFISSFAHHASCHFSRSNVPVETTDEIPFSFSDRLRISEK
Description: Inhibition of MALT1 (unknown origin)

[3] = molecular target: T1, Mucosa-associated lymphoid tissue lymphoma translocation protein 1; experiment: Inhibition MALT1 (unknown origin) using Ac-LRSR-AMC as substrate by fluorescence based analysis
[4] = molecular target: T1, Mucosa-associated lymphoid tissue lymphoma translocation protein 1; experiment: biochemical
Description: Inhibition of C-terminal human full length wild type MALT1 (329 to 824 residues) extracted from baculovirus infected Sf21 cells using Ac-Leu-Arg-Ser-Arg-Rh110-dPro incubated for 60 mins by fluorescence based analysis

[5] = molecular target: T1, Mucosa-associated lymphoid tissue lymphoma translocation protein 1; experiment: biochemical; remark: listed apart in the source
Description: Inhibition of human full length His-tagged MALT1 (1 to 824 residues) infected in baculovirus infected Insect cells using Ac-LRSR-AMC as substrate incubated for 1 hr by HTRF assay

[6] = molecular target: T1, Mucosa-associated lymphoid tissue lymphoma translocation protein 1; experiment: biochemical; remark: listed apart in the source
Description: Inhibition of N-terminal recombinant human MALT1 (329 to 824 residues) extracted from baculovirus infected Sf21 cells using c-LRSR~Rhodamine110-DP as substrate by fluorescence based assay

[7] = molecular target: T1, Mucosa-associated lymphoid tissue lymphoma translocation protein 1; experiment: Inhibition of N-terminal human recombinant MALT1 expressed in Jurkat cells assessed as suppression of IL-2 secretion
[8] = molecular target: T1, Mucosa-associated lymphoid tissue lymphoma translocation protein 1; remark: listed apart in the source
Description: Binding affinity to full length C-terminal His-tagged wild-type MALT1 catalytic domain (329 to 566 residues) (unknown origin) extracted from Escherichia coli BL21 (DE3) assessed as inhibition constant

OCI-Ly3 [9] = experiment: Antiproliferative activity against human OCI-Ly3 cells; type: functional, cell-based
[10] = molecular target: T1, Mucosa-associated lymphoid tissue lymphoma translocation protein 1; experiment: Inhibition of GST-tagged human recombinant MALT1 extracted from Escherichia coli using Ac-LRSR-AMC as substrate by fluorescence based analysis

GI50 (OCI-Ly3 [1]): 2500 nM
SMILES: CC(C)[C@H](NC(=O)OCc1ccccc1)C(=O)N[C@@H](CCCNC(=N)N)C(=O)N1CCC[C@H]1C(=O)N[C@@H](CCCNC(=N)N)C(=O)CF

GI50 (OCI-Ly3 [1]): 87 nM
SMILES: CC(C)[C@H](NC(=O)c1ccc(Br)cc1)C(=O)N1CCC[C@H]1C(=O)N[C@@H](CCCNC(=N)N)C(=O)CF

IC50 [4]: 14 nM
SMILES: CO[C@H](C)c1c(NC(=O)Nc2cnc(C(=O)N3CCCC3)c(Cl)c2)cnc2cc(Cl)nn12

IC50 [5]: 34 nM
SMILES: CO[C@@H](C)c1c(NC(=O)Nc2cnc3c(c2)COc2ccnn2-3)cnc2cc(Cl)nn12

IC50 [6]: 16 nM | IC50 [7]: 53 nM
SMILES: CCc1ccc2cnn(C)c2c1NS(=O)(=O)c1ccc(N2C[C@](O)(C(F)(F)F)CC2=O)nc1

GI50 (OCI-Ly3 [1]): 768 nM
SMILES: CC(C)C[C@H](NC(=O)OCc1ccccc1)C(=O)N[C@H](C(=O)N1CCC[C@H]1C(=O)N[C@@H](CCCNC(=N)N)C(=O)CF)C(C)C (Cbz-LVPR-CH2F)

Ki [8]: 30 nM | GI50 (OCI-Ly3 [1]): 5620 nM
SMILES: CC(C)[C@H](NC(=O)OCc1ccccc1)C(=O)N1CCC[C@H]1C(=O)N[C@@H](CCCNC(=N)N)C(=O)CF (Cbz-Val-Pro-Arg-CH2F)

IC50 [10]: 3790 nM
SMILES: CN(C)CCCN1c2ccccc2Sc2ccccc21 [PROMAZINE]

The remaining lines, values behind:

SMILES: COC(C)c1c(NC(=O)Nc2cnc(-n3nccn3)c(C(F)(F)F)c2)cnc2sc(C)nc12 (stereo not drawn)
IC50 [2]: < 50 nM

SMILES: CO[C@@H](c1c(NC(=O)Nc2cnc(-n3nccn3)c(C(F)(F)F)c2)cnc(C)c1C#N)C1CC1
IC50 [2]: 20 nM

SMILES: CO[C@@H](C)c1c(NC(=O)Nc2cncc(C(F)(F)F)c2)cnc2cc(Cl)nn12
IC50 [3]: 4 nM

SMILES: C[C@]1(C(F)(F)F)CN(C(=O)Nc2cnc(-n3nccn3)c(Cl)c2)c2cnc3cc(Cl)nn3c21
IC50 [5]: < 10 nM

SMILES: CC1(C(F)(F)F)CN(C(=O)Nc2ccc3nonc3c2)c2cnc3cc(Cl)nn3c21 (stereo not drawn)
IC50 [5]: 34 nM

SMILES: O=C(Nc1cncc(C(F)(F)F)c1)Nc1cnn2cc(Cl)nc2c1C1CC1
IC50 [2]: < 100 nM

SMILES: O=C1NC2C=CC(n3ncc(C(=O)Nc4cnc(-n5nccn5)c(Cl)c4)c3C(F)(F)F)=C3C=CC=C1C32 (stereo not drawn)
IC50 [5]: 15 nM

SMILES: CC1(C)CCC2=C(O1)c1ccccc1C(=O)C2=O [LAPACHONE]
IC50 (OCI-Ly3 [9]): 4000 nM
